Assay results: patent publication US7202241B2, “Benzoxazine derivatives and uses thereof” (Roche Palo Alto LLC, priority 2003, dated 2007)

Target: T1, recombinant human 5-HT6 receptor (Homo sapiens, UniProt P50406)
T1 construct: expressed in transfected cells; membranes
Test: in vitro radioligand binding, [3H]LSD competition in membranes of HEK293 cells expressing 5-HT6
Conditions: [3H]LSD (5 nM) displacement, HEK293 cell membranes, 60 min at 37° C., pH 7.4
Experimental: This example illustrates in vitro radioligand binding studies of compound of formula (I).
The binding activity of compounds of this invention in vitro was determined as follows. Duplicate determinations of ligand affinity are made by competing for binding of [^3H]LSD in cell membranes derived from HEK293 cells stably expressing recombinant human 5-HT6 receptor. This cell line was prepared by the method described by Monsma et al., Molecular Pharmacology, Vol. 43 pp. 320–327 (1993).
All determinations were made in assay buffer containing 50 mM Tris-HCl, 10 mM MgSO4, 0.5 mM EDTA, 1 mM ascorbic acid, pH 7.4 at 37° C., in a 250 microliter reaction volume. Assay tubes containing [^3H] LSD (5 nM), competing ligand, and membrane were incubated in a shaking water bath for 60 min. at 37° C., filtered onto Packard GF-B plates (pre-soaked with 0.3% PEI) using a Packard 96 well cell harvester and washed 3 times in ice cold 50 mM Tris-HCl. Bound [^3H] LSD was determined as radioactive counts per minute using Packard TopCount.
Displacement of [3H]LSD from the binding sites was quantified by fitting concentration-binding data to a 4-parameter logistic equation:
[formula] where Hill is the Hill slope, [ligand] is the concentration of competing radioligand and IC50 is the concentration of radioligand producing half-maximal specific binding of radioligand. The specific binding window is the difference between the Bmax and the basal parameters.

T1 sequence (P50406 whole entry): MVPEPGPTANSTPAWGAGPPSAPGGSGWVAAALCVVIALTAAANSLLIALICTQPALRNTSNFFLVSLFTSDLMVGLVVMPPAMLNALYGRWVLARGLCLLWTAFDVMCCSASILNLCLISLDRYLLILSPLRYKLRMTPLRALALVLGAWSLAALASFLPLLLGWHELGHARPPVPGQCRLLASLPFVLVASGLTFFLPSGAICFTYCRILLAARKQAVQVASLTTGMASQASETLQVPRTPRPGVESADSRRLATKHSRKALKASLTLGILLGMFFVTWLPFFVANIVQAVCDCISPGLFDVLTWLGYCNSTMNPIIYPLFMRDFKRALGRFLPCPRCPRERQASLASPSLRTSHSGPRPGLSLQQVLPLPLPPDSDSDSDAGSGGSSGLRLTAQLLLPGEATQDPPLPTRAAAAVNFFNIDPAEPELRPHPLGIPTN

| pKi | SMILES | Ki [nM] |
| --- | --- | --- |
|  | O=S(=O)(c1ccccc1Cl)N1CCOc2c(N3CCNCC3)cccc21 [4-(2-Chloro-benzenesulfonyl)-8-piperazin-1-yl-3,4-dihydro-2H-benzo[1,4]oxazine] | 2.14 |
|  | CC1(C)CN(S(=O)(=O)c2ccccc2F)c2cccc(N3CCNCC3)c2O1 [4-(2-Fluoro-benzenesulfonyl)-2,2-dimethyl-8-piperazin-1-yl-3,4-dihydro-2H-benzo[1,4]oxazine] | 0.209 |
|  | O=S(=O)(c1ccccc1F)N1CCOc2c(N3CCNCC3)cccc21 [4-(2-Fluoro-benzenesulfonyl)-8-piperazin-1-yl-3,4-dihydro-2H-benzo[1,4]oxazine] | 1.26 |
| 9.30 | O=S(=O)(c1cccc(Cl)c1)N1CC2(CCC2)Oc2c(N3CCNCC3)cccc21 [4-(3-Chloro-benzenesulfonyl)-2,2-spiro-cyclobutan-8-piperazin-1-yl-3,4-dihydro-2H-benzo[1,4]oxazine] |  |
|  | Cc1cc(N2CCNCC2)c2c(c1)N(S(=O)(=O)c1cccc(F)c1)CC(C)(C)O2 [4-(3-Fluoro-benzenesulfonyl)-2,2,6-trimethyl-8-piperazinyl-yl-3,4-dihydro-2H-benzo[1,4]oxazine] | 0.407 |
|  | O=S(=O)(c1cccc(F)c1)N1CC2(CCC2)Oc2c(N3CCNCC3)cccc21 [4-(3-Fluoro-benzenesulfonyl)-2,2-spiro-cyclobutan-8-piperazin-1-yl-3,4-dihydro-2H-benzo[1,4]oxazine] | 1.17 |
|  | Cc1cc(N2CCNCC2)c2c(c1)N(S(=O)(=O)c1cccc(F)c1)CCO2 [4-(3-Fluoro-benzenesulfonyl)-6-methyl-8-piperazin-1-yl-3,4-dihydro-2H-benzo[1,4]oxazine] | 2 |
|  | O=S(=O)(c1cccc(F)c1)N1CCOc2c(N3CCNCC3)cccc21 [4-(3-Fluoro-benzenesulfonyl)-8-piperazin-1-yl-3,4-dihydro-2H-benzo[1,4]oxazine] | 11.2 |
|  | CC1(C)CN(S(=O)(=O)c2ccccc2F)c2cc(F)cc(N3CCNCC3)c2O1 [6-Fluoro-4-(2-fluoro-benzenesulfonyl)-2,2-dimethyl-8-piperazin-1-yl-3,4-dihydro-2H-benzo[1,4]oxazine] | 0.209 |
|  | O=S(=O)(c1ccccc1F)N1CCOc2c(N3CCNCC3)cc(F)cc21 [6-Fluoro-4-(2-fluoro-benzenesulfonyl)-8-piperazin-1-yl-3,4-dihydro-2H-benzo[1,4]oxazine] | 0.724 |
